# In patent publication US6809112B2, “Method of treating sexual disturbances” (priority 1999, dated 2004):
smiles,measurement,value
CN[C@@H]1Cc2cccc3[nH]c(=S)n(c23)C1.O=C(O)CC(O)C(=O)O,melting point,195 to 196 °C
